Measurements: ChEMBL document CHEMBL1201862, “PubChem BioAssay data set” (2004)
Activity calls are given as the source filed them.

Columns and labels:
[1] = Luminescence Cell-Based Dose Response HTS to Identify Inhibitors of 5'UTR Stem-Loop Driven Prion Protein mRNA Translation in H4 Neuroglioblastoma Cells. [Related pubchem assays: 1827 (Project Summary), 1813 (Primary HTS)]; type: functional
BJ [2] = test: BJ-TERT-LT-ST fibroblast viability loss – cell-based, RAS-independent, luminescence, dose response (AID 1935); type: functional; conditions: Homo sapiens;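 further: BJ fibroblasts immortalized with TERT plus LT and ST oncogenes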
[3] = luciferase reporter signal suppression in cells – H4 neuroglioma cells, luminescence, dose response (AID 1990); type: functional, cell-based
[4] = alpha-synuclein stem-loop luciferase translation blockers – H4 neuroglioma cells, luminescence, confirmation (AID 1988); type: functional, cell-based
J774.A1 = test: Confirmation of image-based Screening Assay for Inhibitors of Phagocytosis. [Related pubchem assays (depositor defined):AID1029, AID1643]; type: functional, cell-based; conditions: Mus musculus
BJ [5] = test: cells; type: functional, cell-based; conditions: Homo sapiens
BJ [6] = test: BJ-TERT fibroblast viability loss – cell-based, RAS-independent, luminescence, dose response (AID 1933); type: functional; conditions: Homo sapiens
[7] = DRD fibroblast viability loss – cell-based, non-viral oncogenic, luminescence, dose response (AID 1934); type: functional; conditions: Homo sapiens
[8] = HEK-293T viability loss after treatment – luminescence, T-cell screen hits, cytotoxicity control for TCR NF-kB inhibitor project, dose response (AID 489026); type: functional, cell-based;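 further: cells exposed to compound about 14 hours before the viability readout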
BJ [9] = test: growth inhibition of engineered Ras-driven BJ cells – cell-based, alamar blue fluorescence, cherrypicked samples, dose response (AID 2631); type: functional; conditions: Homo sapiens;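 further: confirmatory dose-response assay in RAS-dependent BJ fibroblasts engineered with TERT, LT and ST, with cytotoxicity read by fluorescence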
[10] = biological target: Photoreceptor-specific nuclear receptor (Homo sapiens, UniProt Q9Y5X4); type: functional, cell-based;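 further: CHO-S cells with Gal4-NCOR and VP16-NR2E3 two-hybrid luciferase reporter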
[11] = biological target: T1, Sphingosine 1-phosphate receptor 4 (Homo sapiens, UniProt O95977); test: Fluorescence dose response cell-based high throughput screening assay for antagonists of the Sphingosine 1-Phosphate Receptor 4 (S1P4). [Related pubchem assays: 1524 (Confirmation in triplicates.), 1510 (Primary screen.)]; type: functional
T1 sequence (O95977 whole entry): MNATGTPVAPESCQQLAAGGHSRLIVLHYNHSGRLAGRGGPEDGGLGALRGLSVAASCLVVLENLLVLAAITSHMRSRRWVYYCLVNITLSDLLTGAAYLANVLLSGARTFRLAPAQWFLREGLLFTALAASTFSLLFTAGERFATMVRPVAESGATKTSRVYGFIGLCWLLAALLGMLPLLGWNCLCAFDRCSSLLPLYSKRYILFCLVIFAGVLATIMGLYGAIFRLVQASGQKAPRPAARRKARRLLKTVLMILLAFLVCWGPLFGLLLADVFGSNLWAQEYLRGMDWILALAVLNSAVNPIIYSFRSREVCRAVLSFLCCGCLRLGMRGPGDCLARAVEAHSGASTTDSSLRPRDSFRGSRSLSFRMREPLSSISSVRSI

[12] = biological target: G-protein coupled receptor 55 (Homo sapiens, UniProt Q9Y2T6); test: selective activators of receptor GPR55 – imaging, U2OS cells, beta-arrestin-GFP redistribution, primary screen (AID 1961); type: functional
[13] = viability of PTEN-deleted HCT116 cells – cell-based, HCT116 PTEN knockout, dose response (AID 1047); type: functional;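 further: HCT116 colon tumor cells with PTEN knocked out; cells exposed to compound for 60 hours before readout; potency for loss of cell viability measured by luminescence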
[14] = biological target: T1, Sphingosine 1-phosphate receptor 4; test: Late stage fluorescence dose response cell-based screening assay for antagonists of the Sphingosine 1-Phosphate Receptor 4 (S1P4). [Related pubchem assays: 1524 (Confirmation screen (S1P4 antagonists).), 1510 (Primary screen (S1P4 antagonists).), 1853 (Summary AID (S1P4 antagonists).), 1692 (Dose response screen (S1P4 antagonists).)]; type: functional
[15] = viability of HCT116 lacking mutant beta-catenin – cell-based, human colon tumor, dose response (AID 1045); type: functional;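 further: HCT116 colon tumor cells with beta catenin knocked out; cells exposed to compound for 60 hours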
[16] = Fluorescence-based cell-based high throughput dose response assay for inhibitors of the interaction of nucleotide-binding oligomerization domain containing 2 (NOD2) and the receptor-interacting serine-threonine kinase 2 (RIPK2).; type: functional; conditions: Homo sapiens
[17] = reduced cellular PGC1a acetyl-lysine signal – cell-based, cherry-picked samples, dose response (AID 720514); type: functional;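 further: potency may reflect raised or lowered acetylation signal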
Beta Lactamase = Beta Lactamase (Pseudomonas aeruginosa, UniProt Q932Y6); test: BLA reporter interference, concentration series – BLA reporter cells, FRET fluorescence, artefact control for NOD2-RIPK2 interaction inhibitor project, dose response (AID 651552); type: functional, cell-based
Paired box protein Pax-8 = Paired box protein Pax-8 (Homo sapiens, UniProt Q06710); test: PAX8 transcriptional activity inhibition in RMG-I – RMG-I cells, luciferase, cherry-pick, dose response (AID 687027); type: functional, cell-based;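 further: luciferase reporter driven by Pax8 target thyroperoxidase promoter measured by SteadyGlo luminescence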
INS1 = test: INS-1E survival protection against cytokine death – cell-based, luminescence, retest, dose response (AID 449756); type: functional; conditions: Rattus norvegicus;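 further: cell death triggered by IL-1 beta plus TNF-alpha plus IFN-gamma mixture; protective hits raise ATP signal compared with cytokine alone wells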
[18] = blockade of melanocortin 4 receptor signaling – cell-based, plate reader, cherry pick, counter-screen for LGR2 antagonist project, dose response (AID 743444); type: functional;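 further: transfected HEK 293 cells stimulated with alpha-MSH peptide; potency of inhibitors of the alpha-MSH evoked signal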
[19] = toxicity toward HepG2 liver cells – cell-based, plate reader, cherry-pick, antagonist series, cytotoxicity control, dose response (AID 743416); type: functional
[20] = A549 cell cytotoxicity, dose response, cytotoxicity control, plate reader, cherry-pick, antagonist series (AID 743412); type: functional, cell-based
[21] = Luminescence Cell-Based Dose Response HTS to Identify Activators of Luciferase Translation or Activity in H4 […] Cells. [Related pubchem assays: 1829 (Project Summary), 1814 (Primary HTS)]; type: functional
[22] = biological target: Sphingosine 1-phosphate receptor 1 (Homo sapiens, UniProt P21453); type: functional;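 further: Tango beta-arrestin reporter U2OS cells stimulated with S1P near its EC80; inhibitor potency meaning antagonism of receptor activation by the natural agonist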
[23] = Luminescence Cell-Based Dose Confirmation HTS to Identify Activators of 5'UTR Stem-Loop Driven Alpha-Synuclein mRNA Translation in H4 Neuroglioblastoma Cells. [Related pubchem assays: 1829 (Project Summary), 1814 (Primary HTS)]; type: functional
[24] = viability loss in HEK293 cells – cell-based, plate reader, cherry-picked samples, cytotoxicity control, dose response (AID 743446); type: functional
H4 = test: Luminescence Cell-Based Dose Response HTS to Identify Activators of 5'UTR Stem-Loop Driven Prion Protein mRNA Translation in H4 Neuroglioblastoma Cells. [Related pubchem assays: 1829 (Project Summary), 1814 (Primary HTS)]; type: functional; conditions: Homo sapiens
[25] = blockers of bursicon-stimulated LGR2 cAMP reporter – cell-based, HEK293, CRE-luciferase reporter, cherry pick, set 2, dose response (AID 743343); type: functional;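 further: transfected cells were stimulated with diluted bursicon conditioned medium after compound addition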
[26] = biological target: DNA dC->dU-editing enzyme APOBEC-3G (Homo sapiens, UniProt Q9HC16); test: Dose Response confirmation of small molecule APOBEC3G DNA Deaminase Inhibitors via a fluorescence-based single-stranded DNA deaminase assay. [Related pubchem assays (depositor defined):AID493012, AID493028]; type: functional
[27] = biological target: DNA dC->dU-editing enzyme APOBEC-3A (Homo sapiens, UniProt P31941); test: A3A deaminase inhibition for selectivity – biochemical, dose response (AID 504722); type: functional
[28] = biological target: T2, Alkaline phosphatase, tissue-nonspecific isozyme (Homo sapiens, UniProt P05186); test: potency against alkaline phosphatase TNAP – biochemical, luminescent, dose response, SAR follow-up (AID 1056)
T2 sequence (P05186 whole entry): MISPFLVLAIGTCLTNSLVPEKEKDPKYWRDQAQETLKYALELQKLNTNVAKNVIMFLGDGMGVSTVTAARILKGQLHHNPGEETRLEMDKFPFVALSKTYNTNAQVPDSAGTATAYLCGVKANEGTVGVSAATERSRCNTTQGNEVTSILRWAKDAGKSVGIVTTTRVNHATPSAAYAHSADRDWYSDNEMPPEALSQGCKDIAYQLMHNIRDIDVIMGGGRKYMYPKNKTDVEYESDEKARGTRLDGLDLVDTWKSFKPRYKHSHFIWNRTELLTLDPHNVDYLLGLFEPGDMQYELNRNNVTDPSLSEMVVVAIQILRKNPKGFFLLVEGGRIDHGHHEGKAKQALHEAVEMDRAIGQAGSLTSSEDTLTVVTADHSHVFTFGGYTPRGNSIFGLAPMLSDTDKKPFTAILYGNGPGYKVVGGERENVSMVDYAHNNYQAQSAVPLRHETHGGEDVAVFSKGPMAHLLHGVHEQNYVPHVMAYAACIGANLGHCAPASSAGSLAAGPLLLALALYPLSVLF

[29] = biological target: Alkaline phosphatase, placental type (Homo sapiens, UniProt P05187); test: human placental alkaline phosphatase inhibition – biochemical, luminescence, confirmation (AID 1512); type: functional
[30] = biological target: Glyceraldehyde-3-phosphate dehydrogenase (Homo sapiens, UniProt P04406)
Coagulation factor XII = biological target: T3, Coagulation factor XII (Homo sapiens, UniProt P00748); test: activated coagulation factor XII inhibitor potency, concentration-effect curve, cell-free (AID 716); type: functional
T3 sequence (P00748 whole entry): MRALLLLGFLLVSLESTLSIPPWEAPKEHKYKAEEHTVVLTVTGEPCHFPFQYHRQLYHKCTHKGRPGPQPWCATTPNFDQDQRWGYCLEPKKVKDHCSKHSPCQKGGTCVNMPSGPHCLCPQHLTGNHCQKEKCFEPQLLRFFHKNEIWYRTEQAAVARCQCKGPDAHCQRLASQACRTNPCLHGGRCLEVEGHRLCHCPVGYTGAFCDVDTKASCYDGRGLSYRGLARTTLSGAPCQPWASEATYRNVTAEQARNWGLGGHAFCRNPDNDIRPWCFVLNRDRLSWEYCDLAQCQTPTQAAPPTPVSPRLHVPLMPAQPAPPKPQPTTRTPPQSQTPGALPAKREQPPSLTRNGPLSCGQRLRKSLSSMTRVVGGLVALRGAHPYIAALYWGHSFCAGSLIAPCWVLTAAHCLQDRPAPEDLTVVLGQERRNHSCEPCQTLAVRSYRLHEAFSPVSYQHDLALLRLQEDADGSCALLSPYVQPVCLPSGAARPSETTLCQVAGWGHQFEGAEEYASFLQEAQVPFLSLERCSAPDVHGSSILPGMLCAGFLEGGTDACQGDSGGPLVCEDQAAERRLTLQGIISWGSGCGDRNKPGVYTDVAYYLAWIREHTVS

Hexokinase = Hexokinase (Trypanosoma brucei, UniProt Q38C41); test: Confirmation assay for inhibitors of Trypanosoma brucei hexokinase 1-Analogue-first series. [Related pubchem assays (depositor defined):AID1430, AID1632, AID2516, AID2560, AID2579, AID2600, AID449725, AID492951]; type: functional
Sequence of Hexokinase (Q38C41 whole entry): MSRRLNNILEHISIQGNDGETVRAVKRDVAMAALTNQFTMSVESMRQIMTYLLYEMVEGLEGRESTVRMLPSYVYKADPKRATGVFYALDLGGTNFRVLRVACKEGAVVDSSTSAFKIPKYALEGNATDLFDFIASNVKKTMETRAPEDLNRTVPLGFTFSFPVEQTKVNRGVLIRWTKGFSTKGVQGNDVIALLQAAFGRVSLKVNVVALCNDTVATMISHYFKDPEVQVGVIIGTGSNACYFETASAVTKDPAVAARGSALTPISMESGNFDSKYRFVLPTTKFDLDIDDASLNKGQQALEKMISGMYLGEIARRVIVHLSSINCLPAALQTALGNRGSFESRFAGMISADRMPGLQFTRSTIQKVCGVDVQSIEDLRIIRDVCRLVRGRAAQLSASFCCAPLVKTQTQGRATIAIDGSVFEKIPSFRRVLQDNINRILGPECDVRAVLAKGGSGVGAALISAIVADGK

Sequence of Alkaline phosphatase, placental type (P05187 whole entry): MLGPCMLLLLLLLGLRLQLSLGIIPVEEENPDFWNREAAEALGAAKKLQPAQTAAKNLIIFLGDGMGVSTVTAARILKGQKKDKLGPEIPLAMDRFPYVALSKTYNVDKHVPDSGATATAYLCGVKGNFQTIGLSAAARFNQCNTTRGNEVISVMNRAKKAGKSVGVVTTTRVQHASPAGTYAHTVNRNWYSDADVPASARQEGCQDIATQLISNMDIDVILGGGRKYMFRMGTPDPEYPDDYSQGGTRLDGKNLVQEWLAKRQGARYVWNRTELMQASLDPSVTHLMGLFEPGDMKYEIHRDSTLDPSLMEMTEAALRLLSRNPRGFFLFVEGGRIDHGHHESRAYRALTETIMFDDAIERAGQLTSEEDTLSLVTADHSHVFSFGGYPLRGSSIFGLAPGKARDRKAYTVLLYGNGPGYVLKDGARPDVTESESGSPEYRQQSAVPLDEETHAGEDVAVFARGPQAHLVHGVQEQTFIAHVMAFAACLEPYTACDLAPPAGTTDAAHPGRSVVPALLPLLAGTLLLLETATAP
Sequence of Photoreceptor-specific nuclear receptor (Q9Y5X4 whole entry, the tested form may be a part): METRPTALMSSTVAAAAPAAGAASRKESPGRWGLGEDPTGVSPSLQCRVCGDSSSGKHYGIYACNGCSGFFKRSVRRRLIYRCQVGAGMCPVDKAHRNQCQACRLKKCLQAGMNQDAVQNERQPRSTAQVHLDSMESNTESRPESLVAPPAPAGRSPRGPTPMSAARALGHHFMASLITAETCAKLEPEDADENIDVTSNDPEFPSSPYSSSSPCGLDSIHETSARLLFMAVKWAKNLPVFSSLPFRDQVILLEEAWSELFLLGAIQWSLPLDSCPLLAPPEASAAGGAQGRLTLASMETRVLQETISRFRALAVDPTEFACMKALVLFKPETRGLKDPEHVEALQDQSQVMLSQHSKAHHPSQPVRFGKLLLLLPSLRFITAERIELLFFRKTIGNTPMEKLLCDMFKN
Sequence of Glyceraldehyde-3-phosphate dehydrogenase (P04406 whole entry): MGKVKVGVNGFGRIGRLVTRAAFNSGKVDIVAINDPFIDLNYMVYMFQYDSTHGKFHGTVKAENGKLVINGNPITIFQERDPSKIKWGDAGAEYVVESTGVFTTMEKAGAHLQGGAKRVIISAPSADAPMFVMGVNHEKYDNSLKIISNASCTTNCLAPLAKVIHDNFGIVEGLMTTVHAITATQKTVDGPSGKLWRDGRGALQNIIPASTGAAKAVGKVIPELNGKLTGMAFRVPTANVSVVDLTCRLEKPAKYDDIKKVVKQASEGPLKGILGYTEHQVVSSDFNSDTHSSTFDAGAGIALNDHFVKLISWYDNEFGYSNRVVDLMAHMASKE
Sequence of Paired box protein Pax-8 (Q06710 whole entry): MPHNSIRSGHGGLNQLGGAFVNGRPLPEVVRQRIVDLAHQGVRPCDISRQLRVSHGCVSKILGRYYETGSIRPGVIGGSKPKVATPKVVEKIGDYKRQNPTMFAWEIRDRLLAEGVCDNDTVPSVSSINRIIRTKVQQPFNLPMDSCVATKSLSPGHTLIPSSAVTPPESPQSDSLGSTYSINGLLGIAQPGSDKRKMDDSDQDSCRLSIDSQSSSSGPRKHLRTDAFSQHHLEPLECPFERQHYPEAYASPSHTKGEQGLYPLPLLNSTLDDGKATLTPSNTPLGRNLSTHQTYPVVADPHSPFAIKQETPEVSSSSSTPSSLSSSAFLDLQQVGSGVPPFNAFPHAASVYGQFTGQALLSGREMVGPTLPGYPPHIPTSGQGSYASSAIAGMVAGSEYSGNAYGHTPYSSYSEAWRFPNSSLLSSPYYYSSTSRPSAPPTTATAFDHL
Sequence of G-protein coupled receptor 55 (Q9Y2T6 whole entry): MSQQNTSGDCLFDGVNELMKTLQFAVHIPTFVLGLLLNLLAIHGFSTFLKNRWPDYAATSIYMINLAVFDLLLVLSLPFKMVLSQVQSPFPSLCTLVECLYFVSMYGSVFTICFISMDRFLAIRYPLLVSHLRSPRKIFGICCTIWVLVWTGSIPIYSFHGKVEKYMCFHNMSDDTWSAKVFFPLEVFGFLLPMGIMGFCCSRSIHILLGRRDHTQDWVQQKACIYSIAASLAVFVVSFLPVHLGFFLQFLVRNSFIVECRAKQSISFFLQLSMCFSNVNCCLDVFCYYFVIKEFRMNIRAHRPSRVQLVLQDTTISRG
Sequence of Beta Lactamase (Q932Y6 whole entry): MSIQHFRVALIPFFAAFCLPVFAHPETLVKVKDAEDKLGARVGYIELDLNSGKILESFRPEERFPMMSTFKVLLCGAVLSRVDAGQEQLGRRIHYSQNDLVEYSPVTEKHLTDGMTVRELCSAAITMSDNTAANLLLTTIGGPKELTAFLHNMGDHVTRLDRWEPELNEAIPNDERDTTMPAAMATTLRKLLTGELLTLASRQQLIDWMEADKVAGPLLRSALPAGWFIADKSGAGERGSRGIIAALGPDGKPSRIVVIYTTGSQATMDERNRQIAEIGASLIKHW
Sequence of DNA dC->dU-editing enzyme APOBEC-3G (Q9HC16 whole entry): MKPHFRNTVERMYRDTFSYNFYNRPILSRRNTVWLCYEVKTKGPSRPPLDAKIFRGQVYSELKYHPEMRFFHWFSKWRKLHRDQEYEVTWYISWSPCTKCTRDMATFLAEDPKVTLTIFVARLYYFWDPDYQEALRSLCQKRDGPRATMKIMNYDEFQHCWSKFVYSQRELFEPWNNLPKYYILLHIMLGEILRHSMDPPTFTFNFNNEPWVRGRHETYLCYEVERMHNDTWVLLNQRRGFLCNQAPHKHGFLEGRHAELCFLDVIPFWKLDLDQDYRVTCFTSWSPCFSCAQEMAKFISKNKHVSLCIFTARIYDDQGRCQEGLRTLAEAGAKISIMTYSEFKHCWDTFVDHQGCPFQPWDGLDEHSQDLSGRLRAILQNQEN
Sequence of Sphingosine 1-phosphate receptor 1 (P21453 whole entry): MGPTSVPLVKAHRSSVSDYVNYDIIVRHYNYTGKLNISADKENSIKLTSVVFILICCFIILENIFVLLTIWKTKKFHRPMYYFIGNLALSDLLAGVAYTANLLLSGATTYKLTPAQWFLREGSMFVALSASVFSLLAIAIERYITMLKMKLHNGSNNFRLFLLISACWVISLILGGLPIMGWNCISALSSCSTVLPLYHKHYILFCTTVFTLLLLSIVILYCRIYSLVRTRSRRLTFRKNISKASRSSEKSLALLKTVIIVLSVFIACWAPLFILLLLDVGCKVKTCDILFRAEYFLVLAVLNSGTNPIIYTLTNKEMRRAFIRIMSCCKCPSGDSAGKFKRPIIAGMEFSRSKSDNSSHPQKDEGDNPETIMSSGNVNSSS
Sequence of DNA dC->dU-editing enzyme APOBEC-3A (P31941 whole entry): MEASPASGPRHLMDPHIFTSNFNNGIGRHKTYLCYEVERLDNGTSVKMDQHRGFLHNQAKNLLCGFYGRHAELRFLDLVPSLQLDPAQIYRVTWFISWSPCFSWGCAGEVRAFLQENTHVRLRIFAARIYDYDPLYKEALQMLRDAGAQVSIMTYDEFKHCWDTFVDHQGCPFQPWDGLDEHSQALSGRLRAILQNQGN

**Q.** Which results are given for `COC(=O)c1[nH]c2c(c1C)C(=O)CC(c1cccs1)C2` (configuration not stated)?
**A.** EC50 [1]: 7.34 µM (active); EC50 (BJ [2]): 873 nM (inconclusive); EC50 [3]: 4.98 µM (active); EC50 [4]: 469 nM (active); IC50 (J774.A1): 116 nM (active); EC50 (BJ [5]): 3.72 µM (inconclusive); EC50 (BJ [6]): 1.02 µM (active); EC50 [7]: 912 nM (active); IC50 [8]: > 80 µM (inactive); EC50 (BJ [9]): 299 nM (active)

**Q.** Which IC50 [10] does the source give for `O=C(NCc1cccnc1)/C(=C\c1ccc(-c2ccc(Cl)c(Cl)c2)o1)S(=O)(=O)c1ccccc1` here?
**A.** 4.08 µM (active)

**Q.** What about the IC50 [11] of the same compound?
**A.** 965 nM (active)

**Q.** What about the EC50 [12] of the same compound?
**A.** 1.61 µM (active)

**Q.** What about the EC50 [13] of the same compound?
**A.** 2.92 µM (active)

**Q.** And the IC50 [14]?
**A.** > 50 µM (not active)

**Q.** What about the EC50 [15] of the same compound?
**A.** 2.39 µM (active)

**Q.** What about the IC50 [16] of the same compound?
**A.** 4.34 µM (active)

**Q.** What about the AC50 [17] of the same compound?
**A.** 3.52 µM (active)

**Q.** What about the IC50 (Beta Lactamase) of the same compound?
**A.** 26.7 µM (inactive)

**Q.** And the AC50 (Paired box protein Pax-8)?
**A.** 4.66 µM (active)

**Q.** What about the AC50 (INS1) of the same compound?
**A.** 3.63 µM (active)

**Q.** And the AC50 [18]?
**A.** 7.86 µM (active)

**Q.** What about the AC50 [19] of the same compound?
**A.** 7.96 µM (active)

**Q.** What about the AC50 [20] of the same compound?
**A.** 6.6 µM (active)

**Q.** And the EC50 [21]?
**A.** > 120 µM (not active)

**Q.** And the IC50 [22]?
**A.** 8.81 µM (active)

**Q.** What about the EC50 [23] of the same compound?
**A.** > 120 µM (not active)

**Q.** What about the AC50 [24] of the same compound?
**A.** 8.51 µM (active)

**Q.** And the EC50 (H4)?
**A.** > 120 µM (not active)

**Q.** And the AC50 [25]?
**A.** 8.45 µM (active)

**Q.** With `Cn1c(S)nnc1-c1ccc(C(C)(C)C)cc1` as the compound, how does the IC50 [26] read?
**A.** 4.79 µM (active)

**Q.** What about the IC50 [27] of the same compound?
**A.** > 100 µM (inactive)

**Q.** Which results are given for `COc1cccc(Cc2nc(N)nn2-c2ccccc2)c1`?
**A.** IC50 [28]: > 100 µM (inactive); IC50 [29]: > 100 µM (inactive); IC50 [30]: > 100 µM (not active)

**Q.** Which IC50 (Coagulation factor XII) does the source give for `CC(C)(C)NC(=O)CN(C(=O)C1CSC(=O)C1)c1ccc2c(c1)OCCO2` (configuration not stated) here?
**A.** > 50 µM (inactive)

**Q.** For `CCc1ccc(C(=O)Nc2cc(Br)ccc2C(=O)O)cc1`, which IC50 (Hexokinase) is on record?
**A.** 5.45 µM (active)
